Data taken from patent publication EP4731189B1, “SOLID ORAL FORMULATION OF PUDAFENSINE” (Initiator Pharma A/S, priority 2023, dated 2024).
In brackets after ≈: the same amount, converted by molar mass.

How the values were obtained:
[1] = test system: male subjects with erectile dysfunction (ED); assay: Phase IIb study in erectile dysfunction, treatment-emergent adverse events and semen analysis; type: in vivo, humans
Excerpt: (§1) The study investigated the effects of repeat single oral doses of IP2015 on male subjects with erectile dysfunction (ED) on ability to develop and maintain an erection, as well as safety and tolerability of single oral doses of IP2015, effects on penile rigidity and tumescence during visual stimulation, effects on sperm count and motility, and any possible relationship between plasma levels of IP2015, its efficacy and safety.
(§2) 130 subjects were divided into 3 groups upon which the study was conducted in parallel. Each subject was dosed on four occasions with either 5 mg IP2015, 10 mg IP2015 or matched placebo. In each group, subjects were randomized evenly to each of the three study treatments and received the same treatment at each visit.
(§3) On Day -7, and at Week 1 (Day 1), Week 2, Week 3, Week 4 and Follow-up visits, all groups were asked to complete the IIEF-15 questionnaire. Group 2 was asked to complete a Visual Stimulation Assessment using a RigiScan Plus Monitor on Day -7, Week 1 (Day 1) and Week 4. Group 2 was also required to provide blood samples for pharmacokinetic assessment on Week 1 (Day 1) and Week 4. Group 3 was required to provide semen samples on Day -7 and Week 4.
(§4) There were three potential study treatments of 5 mg IP2015, 10 mg IP2015 or matched placebo. In each group, subjects were randomized evenly to each of the three study treatments and received the same treatment on each visit. IP2015 or matched placebo was administered once in the morning of Week 1 (Day 1), Week 2, Week 3, and Week 4 as an oral solution in the fasted state. The dose was taken with 240 mL of water at room temperature. Subjects had fasted 2 hours prior to dosing until 4 hours post-dose. Water was allowed ad libitum except for 1 hour before and 1 hour after dosing.
(§5) Efficacy was assessed through the International Index of Erectile Function (IIEF)-15 questionnaire. The change from baseline in responses to questions of the IIEF-15 questionnaire, including questions regarding erectile function, orgasmic function, sexual desire, intercourse satisfaction and overall satisfaction domain scores, was determined at different time points of the study. RigiScan assessments during the stimulus assessment, and sperm count and motility by semen sample collection was used for efficacy evaluation. Safety was assessed through AE reporting, 12-lead ECG, vital signs, physical examinations, and clinical laboratory evaluations. Pharmacokinetics was assessed by blood sampling.

[2] = Solubility of IP2015 in aqueous and non-aqueous vehicles (visual, HPLC content); type: physicochemical
Method: Solubility of IP2015 was determined in both aqueous and non-aqueous vehicles. In non-aqueous liquids, the solubility was visually confirmed in progressive dilutions. The solubility of IP2015 in pH specific aqueous solutions was evaluated, the solubility was visually confirmed, and the content was evaluated by HPLC. Table 2. Solubility of IP2015 in different media.

[3] = test system: male subjects with erectile dysfunction (ED); assay: Phase IIb study in erectile dysfunction, IIEF-15 questionnaire efficacy; type: in vivo, humans
Excerpt: as §1, §2
The study lasted approximately 8 weeks and consisted of the following: • A screening visit (up to 21 days prior to the baseline visit) • A baseline visit (Day -7) • Outpatient visits on Week 1 (Day 1), Week 2, Week 3 and Week 4 • A follow-up visit a minimum of 7 to 10 days after their final dose.
as §3
The patients were otherwise healthy male subjects with ED as determined from an IIEF-5 score of ≤16, with a body mass index of 18 to 35 kg/m^2 (inclusive), of any ethnic origin. Subjects were aged between 18 to 59 years, inclusive.
as §4, §5
The results are means±SE. The statistical differences were performed with Mixed Model Repeated Measures (MMRM).

[4] = pH 5.8 Potassium Phosphate buffer
[5] = pH 6.8 Potassium Phosphate buffer
[6] = pH 7.5 Potassium Phosphate buffer
[7] = 5 mg IP2015 oral solution, overall score, tendency to difference

SMILES: COc1cc2ccc(O[C@@H]3C[C@H]4CC[C@@H](C3)N4)cc2oc1=O [IP2015, Exo-7-[(-8-azabicyclo[3.2.1]octan-3-yl)oxy]-3-methoxy-chromen-2-one]
- Any TEAE, figure after the comma ([1]; IP2015 5mg, N=42): 61
- Any TEAE, n (%) ([1]; IP2015 5mg, N=42): 32 (76.2 %)
- TEAE Dizziness, figure after the comma ([1]; IP2015 5mg, N=42): 3
- TEAE Dizziness, n (%) ([1]; IP2015 5mg, N=42): 3 (7.1 %)
- TEAE Headache, figure after the comma ([1]; IP2015 5mg, N=42): 15
- TEAE Headache, n (%) ([1]; IP2015 5mg, N=42): 11 (26.2 %)
- TEAE Mild, figure after the comma ([1]; IP2015 5mg, N=42): 56
- TEAE Mild, n (%) ([1]; IP2015 5mg, N=42): 29 (69.0 %)
- TEAE Moderate, figure after the comma ([1]; IP2015 5mg, N=42): 5
- TEAE Moderate, n (%) ([1]; IP2015 5mg, N=42): 3 (7.1%)
- TEAE Nausea, figure after the comma ([1]; IP2015 5mg, N=42): 1
- TEAE Nausea, n (%) ([1]; IP2015 5mg, N=42): 1 (2.4 %)
- TEAE Related*, figure after the comma ([1]; IP2015 5mg, N=42): 19
- TEAE Related*, n (%) ([1]; IP2015 5mg, N=42): 10 (23.8 %)
- TEAE Severe ([1]; IP2015 5mg, N=42): 0
- Any TEAE, figure after the comma ([1]; IP2015 10 mg, N=43): 141
- Any TEAE, n (%) ([1]; IP2015 10 mg, N=43): 34 (79.1 %)
- TEAE Dizziness, figure after the comma ([1]; IP2015 10 mg, N=43): 15
- TEAE Dizziness, n (%) ([1]; IP2015 10 mg, N=43): 12 (27.9 %)
- TEAE Headache, figure after the comma ([1]; IP2015 10 mg, N=43): 27
- TEAE Headache, n (%) ([1]; IP2015 10 mg, N=43): 16 (37.2 %)
- TEAE Mild, figure after the comma ([1]; IP2015 10 mg, N=43): 132
- TEAE Mild, n (%) ([1]; IP2015 10 mg, N=43): 33 (76.7%)
- TEAE Moderate, figure after the comma ([1]; IP2015 10 mg, N=43): 9
- TEAE Moderate, n (%) ([1]; IP2015 10 mg, N=43): 7 (16.3%)
- TEAE Nausea, figure after the comma ([1]; IP2015 10 mg, N=43): 15
- TEAE Nausea, n (%) ([1]; IP2015 10 mg, N=43): 8 (18.6 %)
- TEAE Related*, figure after the comma ([1]; IP2015 10 mg, N=43): 84
- TEAE Related*, n (%) ([1]; IP2015 10 mg, N=43): 23 (53.5 %)
- TEAE Severe ([1]; IP2015 10 mg, N=43): 0
- severe side effects ([1]; any of the doses (5 mg, 10 mg)): No severe side effects were observed
- Treatment-emergent adverse effects ([1]; low-dose (5 mg)): comparable to the placebo group
- solubility ([2]; 0.1n hcl, pH 1.2 HCl (0.1N)): 17 µg/mL (≈ 0.0564 mM)
- Inference (Ph.Eur) ([2]; N,N-dimethyl acetamide): Very slightly soluble
- Inference (Ph.Eur) ([2]; N-methyl-2-pyrrolidone): Very slightly soluble
- solubility ([2]; aqueous solutions across physiological pH): < 1000 µg/mL
- Inference (Ph.Eur) ([2]; dimethyl sulfoxide): Slightly soluble
- solubility ([2]; dimethyl sulfoxide): 5000 to 10000 µg/mL (≈ 16.6 to 33.2 mM)
- Inference (Ph.Eur) ([2]; ethanol): Very slightly soluble
- solubility ([2]; ethanol): < 1000 µg/mL
- Inference (Ph.Eur) ([2]; glycerine): Very slightly soluble
- solubility ([2]; glycerine): < 1000 µg/mL
- solubility ([2]; n,n-dimethyl acetamide): < 1000 µg/mL
- solubility ([2]; n-methyl-2-pyrrolidone): < 1000 µg/mL
- Inference (Ph.Eur) ([2]; pH 1.2 HCl (0.1N)): Very slightly soluble
- Inference (Ph.Eur) ([2]; pH 3.0 Acetate buffer): Slightly soluble
- solubility ([2]; pH 3.0 Acetate buffer): 1170 µg/mL (≈ 3.89 mM)
- Inference (Ph.Eur) ([2]; pH 3.0 Citrate buffer): Very slightly soluble
- solubility ([2]; pH 3.0 Citrate buffer): 839 µg/mL (≈ 2.78 mM)
- Inference (Ph.Eur) ([2]; pH 4.0 Citrate buffer): Very slightly soluble
- solubility ([2]; pH 4.0 Citrate buffer): 849 µg/mL (≈ 2.82 mM)
- Inference (Ph.Eur) ([2]; pH 4.5 Acetate buffer): Very slightly soluble
- solubility ([2]; pH 4.5 Acetate buffer): 981 µg/mL (≈ 3.26 mM)
- Inference (Ph.Eur) [2, 4]: Very slightly soluble
- solubility [2, 4]: 104 µg/mL (≈ 0.345 mM)
- Inference (Ph.Eur) [2, 5]: Very slightly soluble
- solubility [2, 5]: 146 µg/mL (≈ 0.484 mM)
- Inference (Ph.Eur) [2, 6]: Very slightly soluble
- solubility [2, 6]: 84 µg/mL (≈ 0.279 mM)
- Inference (Ph.Eur) ([2]; polyethylene glycol 400): Very slightly soluble
- solubility ([2]; polyethylene glycol 400): < 1000 µg/mL
- Inference (Ph.Eur) ([2]; propylene glycol): Slightly soluble
- solubility ([2]; propylene glycol): 1000 to 5000 µg/mL (≈ 3.32 to 16.6 mM)
- Inference (Ph.Eur) ([2]; purified water): Very slightly soluble
- solubility ([2]; purified water): 738 µg/mL (≈ 2.45 mM)
- overall response to questions of IIEF-15, p versus baseline ([3]; 5 mg IP2015 oral solution, at follow-up, significant): 0.0046
- overall response to questions of IIEF-15, p versus placebo ([3]; 5 mg IP2015 oral solution, at follow-up, tendency): 0.07
- Q4 in the IIEF-15, overall score, p compared to placebo ([3]; 5 mg IP2015 oral solution, overall score, no difference): 0.44
- overall response to questions of IIEF-15, overall score, p versus baseline ([3]; 5 mg IP2015 oral solution, overall score, significant): 0.0032
- overall response to questions of IIEF-15, overall score, p versus placebo ([3]; 5 mg IP2015 oral solution, overall score, tendency): 0.10
- Q3 in the IIEF-15, overall score, p versus baseline [3, 7]: 0.07
- Q3 in the IIEF-15, overall score, p versus placebo [3, 7]: 0.07
- Q4 in the IIEF-15, overall score, p versus baseline [3, 7]: 0.056
- Q3 in the IIEF-15, p versus baseline ([3]; 5 mg IP2015 oral solution, week 3, MMRM, significant): 0.046
- Q3 in the IIEF-15, p versus placebo ([3]; 5 mg IP2015 oral solution, week 3, change from baseline, MMRM, significant): 0.034
- overall IIEF-15 score, score change ([3]; low dose (5 mg) of IP2015, called clinically significant): 2
